Measurements published in the supplement of paper PMC10307832.

Experiments:
Assay in all cases: relative viability (nuclei count vs DMSO), 5 days (fraction); higher = more cells survive
NCI-H2405 = tested on: NCI-H2405
Outline: (§1)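 One day after seeding in 1536-well plates, lung cancer cell lines were dosed by pin tool. Dosing was either single-drug or a fixed anchor-drug dose plus five library-drug doses (not always all listed) in √10 steps. After 5 days, nuclei were stained in one fix-and-stain step and counted on 4× images, and relative viability is the nuclei count of treated wells over that of vehicle wells, given as the median of duplicate plates.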

PC-14 = tested on: PC-14
Outline: as §1

HARA = tested on: HARA
Outline: as §1

NCI-H2009 = tested on: NCI-H2009
Outline: as §1

NCI-H460 = tested on: NCI-H460
Outline: as §1

NCI-H2023 = tested on: NCI-H2023
Outline: as §1

PC-3 [JPC-3] = tested on: PC-3 [JPC-3]
Outline: as §1

UMC-11 = tested on: UMC-11
Outline: as §1

NCI-H1915 = tested on: NCI-H1915
Outline: as §1

NCI-H1793 = tested on: NCI-H1793
Outline: as §1

SK-LU-1 = tested on: SK-LU-1
Outline: as §1

NCI-H596 = tested on: NCI-H596
Outline: as §1

NCI-H1755 = tested on: NCI-H1755
Outline: as §1

HCC-15 = tested on: HCC-15
Outline: as §1

NCI-H441 = tested on: NCI-H441
Outline: as §1

NCI-H3122 = tested on: NCI-H3122
Outline: as §1

HCC-366 = tested on: HCC-366
Outline: as §1

NCI-H1975 = tested on: NCI-H1975
Outline: as §1

A-427 = tested on: A-427
Outline: as §1

NCI-H650 = tested on: NCI-H650
Outline: as §1

H3255 = tested on: H3255
Outline: as §1

NCI-H1437 = tested on: NCI-H1437
Outline: as §1

LXF-289 = tested on: LXF-289
Outline: as §1

O=C(O)CCCCC(CCSCc1ccccc1)SCc1ccccc1 (stereo not drawn) [CPI-613] + Cc1cc(Nc2cc(N3CCN(C)CC3)nc(Sc3ccc(NC(=O)C4CC4)cc3)n2)n[nH]1 [Tozasertib] (partner 0.1 µM)
relative viability (NCI-H2405; first compound 5 µM): 0.75
relative viability (NCI-H2405; first compound 15.81 µM): 0.616
relative viability (NCI-H2405; first compound 50 µM): 0.625
relative viability (NCI-H2405; first compound 158.11 µM): 0.554
relative viability (NCI-H2405; first compound 500 µM): 0.533
relative viability (PC-14; first compound 5 µM): 0.556
relative viability (PC-14; first compound 15.81 µM): 0.531
relative viability (PC-14; first compound 50 µM): 0.553
relative viability (PC-14; first compound 158.11 µM): 0.502
relative viability (PC-14; first compound 500 µM): 0.536
relative viability (HARA; first compound 15.81 µM): 0.117
relative viability (HARA; first compound 50 µM): 0.0973
relative viability (HARA; first compound 158.11 µM): 0.0946
relative viability (HARA; first compound 500 µM): 0.0096
relative viability (NCI-H2009; first compound 5 µM): 0.67
relative viability (NCI-H2009; first compound 15.81 µM): 0.696
relative viability (NCI-H2009; first compound 50 µM): 0.699
relative viability (NCI-H2009; first compound 158.11 µM): 0.136
relative viability (NCI-H2009; first compound 500 µM): 0.0212
relative viability (NCI-H460; first compound 5 µM): 0.497
relative viability (NCI-H460; first compound 15.81 µM): 0.28
relative viability (NCI-H460; first compound 50 µM): 0.457
relative viability (NCI-H460; first compound 158.11 µM): 0.371
relative viability (NCI-H460; first compound 500 µM): 0.418
relative viability (NCI-H2023; first compound 5 µM): 0.359
relative viability (NCI-H2023; first compound 15.81 µM): 0.234
relative viability (NCI-H2023; first compound 50 µM): 0.312
relative viability (NCI-H2023; first compound 158.11 µM): 0.0417
relative viability (NCI-H2023; first compound 500 µM): 0.0077
relative viability (PC-3 [JPC-3]; first compound 5 µM): 0.81
relative viability (PC-3 [JPC-3]; first compound 15.81 µM): 0.808
relative viability (PC-3 [JPC-3]; first compound 50 µM): 0.762
relative viability (PC-3 [JPC-3]; first compound 158.11 µM): 0.499
relative viability (PC-3 [JPC-3]; first compound 500 µM): 0.498
relative viability (UMC-11; first compound 5 µM): 0.189
relative viability (UMC-11; first compound 15.81 µM): 0.195
relative viability (UMC-11; first compound 50 µM): 0.183
relative viability (UMC-11; first compound 158.11 µM): 0.127
relative viability (UMC-11; first compound 500 µM): 0.116
relative viability (NCI-H1915; first compound 5 µM): 0.44
relative viability (NCI-H1915; first compound 15.81 µM): 0.4
relative viability (NCI-H1915; first compound 50 µM): 0.322
relative viability (NCI-H1915; first compound 158.11 µM): 0.241
relative viability (NCI-H1915; first compound 500 µM): 0.111
relative viability (NCI-H1793; first compound 5 µM): 0.297
relative viability (NCI-H1793; first compound 15.81 µM): 0.281
relative viability (NCI-H1793; first compound 50 µM): 0.308
relative viability (NCI-H1793; first compound 158.11 µM): 0.149
relative viability (NCI-H1793; first compound 500 µM): 0.0274
relative viability (SK-LU-1; first compound 5 µM): 0.321
relative viability (SK-LU-1; first compound 15.81 µM): 0.244
relative viability (SK-LU-1; first compound 50 µM): 0.299
relative viability (SK-LU-1; first compound 158.11 µM): 0.25
relative viability (SK-LU-1; first compound 500 µM): 0.195
relative viability (NCI-H596; first compound 5 µM): 1.08
relative viability (NCI-H596; first compound 15.81 µM): 0.923
relative viability (NCI-H596; first compound 50 µM): 0.966
relative viability (NCI-H596; first compound 158.11 µM): 0.595
relative viability (NCI-H596; first compound 500 µM): 0.0638
relative viability (NCI-H1755; first compound 5 µM): 0.558
relative viability (NCI-H1755; first compound 15.81 µM): 0.52
relative viability (NCI-H1755; first compound 50 µM): 0.581
relative viability (NCI-H1755; first compound 158.11 µM): 0.402
relative viability (NCI-H1755; first compound 500 µM): 0.356
relative viability (HCC-15; first compound 5 µM): 0.514
relative viability (HCC-15; first compound 15.81 µM): 0.367
relative viability (HCC-15; first compound 50 µM): 0.369
relative viability (HCC-15; first compound 158.11 µM): 0.29
relative viability (HCC-15; first compound 500 µM): 0.112
relative viability (NCI-H441; first compound 5 µM): 0.704
relative viability (NCI-H441; first compound 15.81 µM): 0.633
relative viability (NCI-H441; first compound 50 µM): 0.649
relative viability (NCI-H441; first compound 158.11 µM): 0.247
relative viability (NCI-H441; first compound 500 µM): 0.0826
relative viability (NCI-H3122; first compound 5 µM): 0.357
relative viability (NCI-H3122; first compound 15.81 µM): 0.363
relative viability (NCI-H3122; first compound 50 µM): 0.348
relative viability (NCI-H3122; first compound 158.11 µM): 0.211
relative viability (NCI-H3122; first compound 500 µM): 0.0108
relative viability (HCC-366; first compound 5 µM): 0.0925
relative viability (HCC-366; first compound 15.81 µM): 0.33
relative viability (HCC-366; first compound 50 µM): 0.156
relative viability (HCC-366; first compound 158.11 µM): 0.0259
relative viability (HCC-366; first compound 500 µM): 0.0032
relative viability (NCI-H1975; first compound 5 µM): 0.7
relative viability (NCI-H1975; first compound 15.81 µM): 0.639
relative viability (NCI-H1975; first compound 50 µM): 0.676
relative viability (NCI-H1975; first compound 158.11 µM): 0.324
relative viability (NCI-H1975; first compound 500 µM): 0.233
relative viability (A-427; first compound 5 µM): 0.204
relative viability (A-427; first compound 15.81 µM): 0.193
relative viability (A-427; first compound 50 µM): 0.203
relative viability (A-427; first compound 158.11 µM): 0.124
relative viability (A-427; first compound 500 µM): 0.0991
relative viability (NCI-H650; first compound 5 µM): 0.702
relative viability (NCI-H650; first compound 15.81 µM): 0.623
relative viability (NCI-H650; first compound 50 µM): 0.699
relative viability (NCI-H650; first compound 158.11 µM): 0.546
relative viability (NCI-H650; first compound 500 µM): 0.586
relative viability (H3255; first compound 5 µM): 0.529
relative viability (H3255; first compound 15.81 µM): 0.615
relative viability (H3255; first compound 50 µM): 0.579
relative viability (H3255; first compound 500 µM): 0.753
relative viability (NCI-H1437; first compound 5 µM): 0.374
relative viability (NCI-H1437; first compound 15.81 µM): 0.39
relative viability (NCI-H1437; first compound 50 µM): 0.407
relative viability (NCI-H1437; first compound 158.11 µM): 0.156
relative viability (NCI-H1437; first compound 500 µM): 0.131
relative viability (LXF-289; first compound 5 µM): 0.178
relative viability (LXF-289; first compound 15.81 µM): 0.142
relative viability (LXF-289; first compound 50 µM): 0.176
relative viability (LXF-289; first compound 158.11 µM): 0.0521
relative viability (LXF-289; first compound 500 µM): 0.0406
